Like-named read-outs stand apart in the source and are kept apart here. Marks after values point to notes of the source that are not given here.
Legend:
[1] = test system: acetic acid-induced writhing; test: acetic acid-induced writhing test (peripheral analgesic); type: in vivo, albino mice; conditions: for Potency: % inhibition/protection compared to indomethacin; for % Inhibition/protection: vs control; for 1/(observed property): 1/(% inhibition) peripheral analgesic; for Observed property: % inhibition/protection peripheral analgesic
Procedure: Peripheral analgesic activity was measured by the standard acetic acid-induced writhing test in mice. […] One hour after the i.p. administration, each mouse was injected with 0.1 ml of 1% acetic acid solution i.p. The control group animals were given sterile/distilled water with few drops of Tween 80. Starting 5 min after the acetic acid injection, the number of muscular contractions in each mouse was counted for 30 min. A significant reduction in the number of writhing by a conjugate compared with control animals was considered as a positive analgesic response. Percentage protection was calculated according to equ. (3), where n is the average number of writhing in the control group and n′ is the average number of writhing in the treated group. The % potency was calculated by equ. (4) (Table 2).

COX-2 = target: T1, COX-2 (Homo sapiens, UniProt P35354); test: Inhibition of COX-2; type: biochemical; conditions: for SI: SI=IC50 (COX-1)/IC50 (COX-2); for IC50: ± SD
T1 construct: purchased BioVision Incorporated K547-100 and K548-100 (for COX-1/2)
T1 sequence (P35354 18-604): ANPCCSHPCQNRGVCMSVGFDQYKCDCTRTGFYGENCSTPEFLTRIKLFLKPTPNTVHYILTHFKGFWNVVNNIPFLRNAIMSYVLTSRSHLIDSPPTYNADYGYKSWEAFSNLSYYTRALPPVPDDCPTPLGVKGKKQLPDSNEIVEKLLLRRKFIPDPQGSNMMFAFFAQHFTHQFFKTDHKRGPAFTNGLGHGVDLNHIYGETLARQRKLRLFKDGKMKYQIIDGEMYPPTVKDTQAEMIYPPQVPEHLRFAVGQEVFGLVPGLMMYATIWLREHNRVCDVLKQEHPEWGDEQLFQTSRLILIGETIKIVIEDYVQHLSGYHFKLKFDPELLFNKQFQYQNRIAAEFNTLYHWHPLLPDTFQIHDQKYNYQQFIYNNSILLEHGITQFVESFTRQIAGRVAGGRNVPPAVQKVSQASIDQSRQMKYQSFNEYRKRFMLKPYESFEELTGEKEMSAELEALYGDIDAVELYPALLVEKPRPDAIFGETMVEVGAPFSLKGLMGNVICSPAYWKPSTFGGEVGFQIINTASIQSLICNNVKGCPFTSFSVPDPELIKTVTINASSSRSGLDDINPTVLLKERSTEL
From the text: (§1) Rev. […] Thromb. Vasc. […] Rev. […] Rev. […] Rev. Oncol. Hematol. […] Curr. Pharm. Des. […] Luong, et al., Nat. Struct. […] A. and Marnett, L. J., Chem. Rev. […] Drug Discov. […] Biomol.

toxicological bioassay = conditions: 50 mg/kg indomethacin mol equivalent (5 folds of anti-inflammatory dose); 24 h post-administration
Procedure: Albino mice weighing 20-25 g were divided into 6 groups of 6 mice each. […] The toxic symptoms and mortality rates were recorded 24 h post-administration in each group.
Five times of the anti-inflammatory dose was orally administrated.

COX-1 = COX-1 (UniProt P05979); type: biochemical, human; conditions: ± SD
COX-1, sequence (P05979 whole entry): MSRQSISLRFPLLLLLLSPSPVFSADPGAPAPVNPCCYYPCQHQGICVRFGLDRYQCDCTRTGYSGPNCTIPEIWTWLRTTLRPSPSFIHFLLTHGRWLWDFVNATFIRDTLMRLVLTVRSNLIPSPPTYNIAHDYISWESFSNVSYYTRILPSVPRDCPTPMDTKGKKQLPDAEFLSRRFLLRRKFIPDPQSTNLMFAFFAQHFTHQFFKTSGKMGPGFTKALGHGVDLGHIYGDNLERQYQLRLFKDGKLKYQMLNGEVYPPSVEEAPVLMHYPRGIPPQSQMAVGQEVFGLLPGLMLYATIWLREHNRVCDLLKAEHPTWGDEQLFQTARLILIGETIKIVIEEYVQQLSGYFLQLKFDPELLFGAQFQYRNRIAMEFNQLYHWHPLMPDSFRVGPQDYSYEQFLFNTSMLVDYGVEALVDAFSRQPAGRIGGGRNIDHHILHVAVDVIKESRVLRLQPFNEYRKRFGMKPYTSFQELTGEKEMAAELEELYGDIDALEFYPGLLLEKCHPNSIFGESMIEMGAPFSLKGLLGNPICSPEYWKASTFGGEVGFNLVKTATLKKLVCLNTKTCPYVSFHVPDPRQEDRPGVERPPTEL
From the text: as §1

hot plate latency = test: hot plate test (central analgesic); type: in vivo, albino mice; conditions: for Latency period ± SE: 10 mg/kg indomethacin mol equivalent i.p., cutoff 15 seconds; for % Protection: vs control; for Potency: at 120 min. compared to indomethacin; for Observed property: % Protection central analgesic (120 min)
Procedure: An in vivo standard hot plate test was performed. […] The control group animals were given sterile/distilled water with few drops of Tween 80. The maximum cutoff time was 15 seconds to prevent tissue damage. Response latencies were measured at 30, 60, 90 and 120 inns. The % protection was calculated by equ. (5), where, Ti, To are the latency time mean of the tested compound and control group respectively (Table 3).

gastric mucosa [2] = conditions: mouse, in vivo
Procedure: (§2) The ulcerogenic liability of conjugates was determined in albino mice following a standard method. Animals of either sex (pregnant females were excluded) weighing 20-25 g were divided into 8 groups of 6 animals each. The animals fasted 18 h before drug administration. […] The control group animals were given water with a few drops of Tween 80. The animals were sacrificed by cervical dislocation and the stomach was removed, opened along the greater curvature, and rinsed with saline. The gastric mucosa was examined with a magnifying lens (10×) for the presence of lesions and erosions. The ulcer index was calculated (Table 4) and the degree of ulcerogenic effect was expressed in terms of: (1) the percentage incidence of ulcers divided by 10; (2) average number of ulcers per stomach; and (3) average severity of ulcers. The ulcer index is the value that resulted from the sum of the above three values.

gastric mucosa [3] = test: ulcerogenic liability; conditions: for ulcers or erosions to the gastric / ulcerogenic liability (in words): mice; for ulcers or erosions to the gastric / ulcerogenic liability (in words) / % Incidence of ulcer divided by 10 / Average of ulcer number / Average severity of ulcer / Number of animals with ulcer: oral; for % Incidence of ulcer divided by 10 / Average of ulcer number / Average severity of ulcer / Number of animals with ulcer: three successive days, 10 mg/kg indomethacin mol equivalent; for Number of animals with ulcer: 6 animals; for Ulcer index: sum of the three values
Procedure: as §2

[4] = test system: LPS-stimulated RAW264.7 macrophages; test: NO production (nitrite, Griess method) in LPS-stimulated RAW264.7; type: cell-based; conditions: LPS 10 ng/mL
Procedure: The Griess method was used to determine the nitrite concentration in cell culture medium. […] The next day, a volume of 150 μL of the cell supernatant was transferred to a new 96-well plate and 130 μL of deionized water was added on top of it. Lastly, a volume of 20 μL of Griess reagent was added to the cell supernatant and incubated for 30 min in the dark at room temperature. Griess reagent was prepared according to instructions: 1:1 ratio of N-1-naphthyl-ethylenediamine (0.1%) and phosphoric acid (5%) in sulphanilamide (1%) in distilled water. […] The concentration of nitrite was determined using a NaNO2 standard curve.
The nitrite production in the supernatant in the culture medium was measured using Greiss reaction.

RAW264.7 macrophages = test: cell viability, MTT assay; type: cell-based; conditions: LPS-stimulated cells treated, FIG. 2B
Procedure: To ensure that the inflammatory response is not due to cell toxicity, cell viability measurements were done using MTT colorimetric assay. On the same cell cultured 96-well plate from the previous experiment, 100 μL of 1 mg/mL MTT solution was added to the adherent RAW264.7 macrophages cells at 37° C. and incubated for 2 h. After that, 100 μL of DMSO was added to the wells to dissolve insoluble formazan crystals. Absorbance was measured spectrophotometrically at 540 nm using a NanoSPECTROstar microplate reader (BMG LABTECH, Germany). Cell viability was then calculated as a percentage of untreated control.
Cytotoxicity of the macrophages was evaluated using MTT assay.

[5] = 10 mg/kg indomethacin mol equivalent i.p.

## C#CCOC(=O)C(C)c1ccc(CC(C)C)cc1 (stereo not drawn) [Compound 3, prop-2-yn-1-yl 2-(4-isobutylphenyl) propanoate]
[1]
  Potency: 100.0%
[1]; number of writhing counted for 30 min, 10 mg/kg indomethacin mol equivalent i.p.
  Writing reflex ± SE: 11.3 ± 0.9
[1]; [5]
  % Inhibition/protection: 71.8%
COX-2
  SI: 2.262
  IC50: 8.6 ± 0.24 µM
Toxicological bioassay
  toxic symptoms and mortality: No toxic symptoms or mortality
COX-1
  IC50: 19.4 ± 0.55 µM
Hot plate latency; After 30 min.
  Latency period ± SE: 10.37 s
  % Protection: (55.2) %
Hot plate latency; After 60 min.
  Latency period ± SE: 10.78 s
  % Protection: 2.1** (48.3) %
Hot plate latency; After 90 min.
  Latency period ± SE: 10.62 ± 2.2 s
  % Protection: (19.2) %
Hot plate latency; After 120 min.
  Latency period ± SE: 10.35 ± 1.7 s
  % Protection: (14.9) %
Hot plate latency
  Potency: 26.4%
Gastric mucosa [2]
  Ulcer index: 4.33
Gastric mucosa [2]; po, 10 mg/kg
  % Incidence of ulcer divided by 10: 3.33
  Average of ulcer number: 0.33
  Average severity of ulcer: 0.67
  Number of animals with ulcer: 2/6

## CC(C)Cc1ccc(C(C)C(=O)OCc2cn(-c3ccc(Cl)cc3)nn2)cc1 (stereo not drawn) [Compound 5b, (1-(4-Chlorophenyl)-1H-1,2,3-triazol-4-yl)methyl 2-(4-isobutylphenyl)propanoate]
[1]
  1/(observed property): 0.01143
  Observed property: 87.5
[1]; [5]
  % Inhibition/protection: 87.5%
Gastric mucosa [3]
  ulcers or erosions to the gastric / ulcerogenic liability (in words): none and No ulcerogenic liability
  % Incidence of ulcer divided by 10: 0
  Average of ulcer number: 0
  Average severity of ulcer: 0
  Number of animals with ulcer: 0
  Ulcer index: 0
COX-1
  IC50: 119 ± 3.4 µM
Hot plate latency
  Observed property: 27.1

## Cc1ccc(-n2cc(COC(=O)C(C)c3ccc(CC(C)C)cc3)nn2)cc1 (stereo not drawn) [Compound 5d, (1-(p-Tolyl)-1H-1,2,3-triazol-4-yl)methyl 2-(4-isobutylphenyl)propanoate]
[1]
  1/(observed property): 0.01212
  Observed property: 82.5
COX-2
  SI: 2.158
  IC50: 4.47 ± 0.13 µM
Gastric mucosa [3]
  ulcers or erosions to the gastric / ulcerogenic liability (in words): none and No ulcerogenic liability
  % Incidence of ulcer divided by 10: 0
  Average of ulcer number: 0
  Average severity of ulcer: 0
  Number of animals with ulcer: 0
  Ulcer index: 0
COX-1
  IC50: 9.64 ± 0.27 µM
Hot plate latency
  Observed property: 1.2

## COc1ccccc1-n1cc(COC(=O)C(C)c2ccc(CC(C)C)cc2)nn1 (stereo not drawn) [Compound 5e, (1-(2-Methoxyphenyl)-1H-1,2,3-triazol-4-yl)methyl 2-(4-isobutylphenyl)propanoate]
[1]
  1/(observed property): 0.0158
  Observed property: 63.3
COX-2
  SI: 0.387
  IC50: 14 ± 0.4 µM
Gastric mucosa [3]
  ulcers or erosions to the gastric / ulcerogenic liability (in words): none and No ulcerogenic liability
  % Incidence of ulcer divided by 10: 0
  Average of ulcer number: 0
  Average severity of ulcer: 0
  Number of animals with ulcer: 0
  Ulcer index: 0
COX-1
  IC50: 5.42 µM
[4]
  decrease in NO production in comparison to LPS-stimulated cells (in words): insignificant decrease
Hot plate latency
  Observed property: 28

## COc1ccc2c(c1)c(CC(=O)O)c(C)n2C(=O)c1ccc(Cl)cc1 [Indo, indomethacin, reference compound]
[1]
  Potency: 100.0%
[1]; listed as indomethacin
  Potency: 100%
Gastric mucosa [3]
  % Incidence of ulcer divided by 10: 10
  Average of ulcer number: 2
  Average severity of ulcer: 1.67
  Number of animals with ulcer: 6/6
RAW264.7 macrophages
  cytotoxicity (MTT) in comparison to control: no significant cytotoxicity
Hot plate latency; After 30 min.
  % Protection: (87.1) %
Hot plate latency; After 60 min.
  % Protection: 1.6** (80.9) %
Hot plate latency; After 90 min.
  % Protection: (57.9) %
Hot plate latency; After 120 min.
  % Protection: (56.5) %
Hot plate latency
  Potency: 100%

Reference: US20260098019A1, “SYNTHESIS OF NSAID CONJUGATES AS ANTI-INFLAMMATORY AGENTS USING THE MOLECULAR HYBRIDIZATION” (AUGUSTA UNIVERSITY RESEARCH INSTITUTE, INC., priority 2022, published 2026)
